{"source": "patent US20250199015A1", "about": "“CYCLIN-DEPENDENT KINASE 2 INHIBITORS FOR MEDICAL TREATMENT” (INCYCLIX BIO, LLC, priority 2022, published 2025)", "key": {"[1]": {"tested_on": "CCNE1, CCNE2, DNA damage markers in H526 cells", "assay": "Western blot cell cycle and DNA damage proteins", "type": "cell-based, human", "conditions": "24 hours", "procedure": "(§1) The H69 and H526 human lung carcinoma cell lines were grown in RPMI-1640/1× Glutamax/10% fetal bovine serum while the Hs68 Normal foreskin fibroblast cell line was grown in DMEM-high glucose/1× Glutamax/10% fetal bovine serum. […] Cells were collected by washing each well twice with cold PBS, then scraping cells in the presence of 150 μL cold RIPA with protease and phosphatase inhibitors. Lysates were clarified by centrifugation at 14,000×g for 10 min at 4° C. and supernatants transferred to clean tubes. A BCA assay was performed to determine the protein concentration of each lysate. A total of 30 μg of protein was mixed with sample buffer and reducing agent before being run on a 4-12% SDS-PAGE. Protein was transferred to a nitrocellulose membrane and blocked with LI-COR blocking buffer for 1 hour. Membranes were incubated overnight in primary antibody at 4° C. Following 3 washes with TBS-T, membranes were incubated for 45 minutes in LI-COR secondary antibodies. Following 2 washes in TBS-T, and one TBS wash, membranes were scanned using a LI-COR OdysseyCLx. Image studio was used for image analysis."}, "[2]": {"tested_on": "CCNE1, CCNE2, DNA damage markers in H69 cells", "assay": "Western blot cell cycle and DNA damage proteins", "type": "cell-based, human", "conditions": "24 hours", "procedure": "as §1"}}, "data": [{"smiles": "NS(=O)(=O)c1ccc(Nc2ncc3cc4n(c3n2)C2(CCCCC2)C(=O)NN4)cc1", "note": "[Compound I]", "values": [{"measurement": "DNA damage markers", "setting": "[1]", "result": "No overt DNA damage marker changes"}, {"measurement": "cyclin E (CCNE1, CCNE2) levels", "setting": "[1]", "result": "increase of cyclin E (CCNE1, CCNE2) amplification"}, {"measurement": "DNA damage markers", "setting": "[2]", "result": "No overt DNA damage marker changes"}, {"measurement": "cyclin E (CCNE1, CCNE2) levels", "setting": "[2]", "result": "increase of cyclin E (CCNE1, CCNE2) amplification"}]}]}
